molecular target: Dihydroorotate dehydrogenase (quinone), mitochondrial (Homo sapiens, UniProt Q02127); test: DHODH enzymatic assay
Experimental: To detect DHODH enzyme activities, dichloroindophenol (DCIP) is added as the final electron acceptor in the assay. DCIP can accept electrons from the reduced coenzyme Q generated in the assay, or from dihydroorotate (DHO) via FMN by binding presumably to the ubiquinone pocket. DCIP solutions are blue, with an intense absorbance around 600 nm, but becomes colorless upon reduction (J. Biol. Chem. (1986) 261, 11386). The assay buffer contained […], pH 7.5, 150 mM NaCl, 0.5 mM EDTA, and 0.1% Triton X-100 in MilliQ water. Substrate consisting of 20 mM DHO, 5mM CoQ6, and 1mM DCIP in assay buffer, initiates the reaction. The assay is run in end-point mode by quenching the reaction with the potent DHODH inhibitor brequinar. Absorbance measurements were obtained using the BMG Phera Star plate-reading spectrophotomer. Purified human DHODH was purchased from Proteros (cat. No. PR-0044). Chemicals were purchased from Sigma-Aldrich, Teknova, and Avanti Polar Lipids. Liquid handling was performed using Labcyte Echo and Formulatrix Tempest.

Dihydroorotate dehydrogenase (quinone), mitochondrial, sequence (Q02127 whole entry): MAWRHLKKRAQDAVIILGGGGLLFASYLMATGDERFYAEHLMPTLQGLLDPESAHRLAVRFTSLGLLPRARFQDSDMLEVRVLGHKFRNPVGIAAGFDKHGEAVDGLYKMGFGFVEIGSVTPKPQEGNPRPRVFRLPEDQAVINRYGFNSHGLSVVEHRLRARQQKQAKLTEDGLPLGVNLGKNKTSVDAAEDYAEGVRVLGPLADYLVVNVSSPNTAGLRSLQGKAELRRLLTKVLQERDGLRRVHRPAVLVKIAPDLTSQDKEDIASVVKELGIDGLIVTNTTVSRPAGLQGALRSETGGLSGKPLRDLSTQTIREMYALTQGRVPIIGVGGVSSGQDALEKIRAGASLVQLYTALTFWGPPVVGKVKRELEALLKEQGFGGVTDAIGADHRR

| Structure (SMILES) | IC50 [nM] |
| --- | --- |
| Cc1cn(-c2cc(O[C@@H](C)C(F)(F)F)c(C(=O)Nc3c(C)n[nH]c3Cl)cc2F)nc1[C@@H](C)O (relative stereo) [WO2022070069, Example 4] | 0.22 |
| Cc1cn(-c2cc(O[C@@H](C)C(F)(F)F)c(C(=O)Nc3c(C)n[nH]c3Cl)cc2F)nc1[C@H](C)O (relative stereo) [WO2022070069, Example 5] | 0.26 |
| Cc1cn(-c2cc(O[C@@H](C)C(F)(F)F)c(C(=O)Nc3c(F)cccc3Cl)cc2F)nc1C(C)(C)O [WO2022070069, Example 3] | 0.5 |

Continued by falling IC50, values first:

| IC50 [nM] | Structure (SMILES) |
| --- | --- |
| 0.48 | Cc1cn(-c2cc(O[C@@H](C)C(F)(F)F)c(C(=O)Nc3c(F)cccc3Cl)cc2F)nc1[C@@H](C)O (relative stereo) [WO2022070069, Example 1] |
| 0.38 | Cc1cn(-c2cc(O[C@@H](C)C(F)(F)F)c(C(=O)Nc3c(C)n[nH]c3Cl)cc2F)nc1C(C)(C)O [WO2022070069, Example 6] |
| 0.3 | Cc1cn(-c2cc(O[C@@H](C)C(F)(F)F)c(C(=O)Nc3c(F)cccc3Cl)cc2F)nc1[C@H](C)O (relative stereo) [WO2022070069, Example 2] |

From BindingDB's records for patent WO2022070069 (JANSSEN BIOTECH, INC., 2022)
